Source: US9402917B2, “Methods for the induction of broadly anti-HIV-1 neutralizing antibody responses employing liposome-MPER peptide compositions” (priority 2009, dated 2016)

System: 2F5 mAb
Assay: SPR assay with liposome-anchored peptides
Assay type: binding
Conditions: 10 seconds after the injection was stopped; peptide anchored to liposomes

Substance | binding response (background subtracted) [response unit]
QQEKNEQELLELDKWASLWNYKRWIILGLNKIVRMYS-biotin [consensus 2F5 epitope] | 494.6
QQEKNEQELLELDKWASSWNYKRWIILGLNKIVRMYS-biotin | 616.7
